Laboratory results: patent US7053052B2, “Therapies involving mutated heat shock transcription factor” (priority 1997, dated 2006)
Entries after “also recorded” stand apart in the source; their conditions may differ.

Tests used:
HepG2 cells [1] = experiment: Mortality from exposure to cyclophosphamide (LDH release, mortality); settings: cyclophosphamide 20 mM
rodent cell lines = experiment: hsp overexpression in rodent cell lines; format: cell-based; settings: several rodent cell lines
HeLa-CAT cells = experiment: Cell proliferation and cell cycle distribution (FACS, propidium iodide); format: cell-based, human
Procedure: This cell cycle arrest was followed by flow cytometry of propidium iodide-stained cells. To determine whether mutHSF-induced expression (enhanced expression) of hsp protects the cells from hyperthermia-induced cell cycle arrest, cells were either co-transfected with a CMV promoter-linked mutHSF gene construct and a GFP construct, or singly transfected with the GFP construct. After heat treatment and postincubation as described herein, cells were sorted based on GFP fluorescence. […]
For fluorescence-activated cell sorting, cells from cultures transfected or co-transfected with EGFP-expressing construct were removed from tissue culture dishes by treatment with 0.04% EDTA in phosphate-buffered saline (PBS) and were resuspended in PBS. […] Excitation wavelength was 488 nm, and detection wave lengths were 650 nm (long pass) for propidium iodide and 520 nm (narrow band) for detection of EGFP fluorescence. […]
Protein synthesis dropped to about 10% of the normal rate during heat shock but, after a 1 hour recovery period, returned to pre-shock level in HSF1(+)-expressing but not control cells. […] Fluorescence-activated cell sorting and analyses of DNA content were performed on a FACStar Plus machine (Becton-Dickinson, San Jose, Calif.) configured as described elsewhere (Parks, D. R. et al., In: The Handbook of Experimental Immunology, 4th Edition. Vol. 29. pp. 1–29, 1986). […]

HepG2 cells [2] = experiment: Mortality from simulated ischemia (LDH release); format: cell-based, human
Procedure: After heat treatment, cultures were incubated overnight at 37° C. When trypan blue exclusion was used as the criterion for cell survival, cells (unattached and attached) were harvested, and trypan blue-excluding cells were counted in a hemocytometer. In some experiments, cell killing was estimated by the lactate dehydrogenase (LDH) release assay, using the LDH Assay Kit from Sigma Corp. (St. Louis, Mo.). To quantify detachment from the substratum, cultures were washed three times with prewarmed DMEM, and the number of cells remaining on dishes were determined using a hemocytometer. […] Ischemic conditions were simulated as described previously (Mestril, R. et al., J. Clin. Invest., 93:759–767 (1994)). Briefly, cells were placed in slightly hypotonic HBSS (1.3 mM CaCl2, 5 mM KCl, 0.3 mM KH2PO4, 0.5 mM MgCl2, 0.4 mM MgSO4, 69 mM NaCl, 4 mM NaHCO3, 0.3 mM Na2HPO4) without glucose or serum, and made hypoxic for 4–6 hours at 37° C. Control cells were left under normoxic conditions for the same period of time. Hypoxia was achieved by using an air-tight jar from which oxygen was removed by displacement with argon. After 10 minutes of gas exchange, the oxygen concentration was <0.2%. Hypoxia was maintained using the oxygen-consuming GasPak System from BBL Microbiology Systems (Cockeysville, Md.).

Question: How did the “reduction of mortality by LDH leakage assay” value (HepG2 cells [1]) turn out when human HSF1d202–316 [HSF1(+)] was run?
Answer: 43%

Question: What about the “reduction of cyclophosphamide-caused mortality” value (HepG2 cells [1]; 24 hour) of the same substance?
Answer: 55%

Question: What about the “pattern of hsp overexpression” value (rodent cell lines) of the same substance?
Answer: hsp90 and, to a lesser extent, hsp25 were clearly overexpressed; the rate of hsp70 synthesis was only marginally enhanced

Question: And the “heat-induced G2/M cell cycle arrest” value (HeLa-CAT cells; 43° C. heat shock, GFP-positive cells, listed as mutHSF)?
Answer: much lower proportion of cells in G2/M phase; also recorded: only a small fraction

Question: What about the cell proliferation (HeLa-CAT cells; FACS-isolated, days two to four) of the same substance?
Answer: severely inhibited cell proliferation

Question: What about the “decrease of mortality from simulated ischemia” value (HepG2 cells [2]) of the same substance?
Answer: more than 50%
